Starred links: 1 amine or outer side, 2 acyl side, 3 side chain; linkers in the order of their positions; H or OH if unused. Non-standard residues stand in square brackets, D forms with d. Residues, ends and D or L forms follow the SMILES beside them. Groups on a side chain read outwards from the residue. *: point of attachment. X16 = CCCCCCCCCCCCCCCCCC(=O)N[C@@H](CCC(=O)N[C@@H](CCC(=O)N[C@@H](CCC(=O)NCCCOCCOCCOCCCNC(=O)CCC(=O)NCCCOCCOCCOCCCNC(=O)CCC(=O)NCCCOCCOCCOCCCNC(=O)CCC(=O)NCCCOCCOCCOCCCN*)C(=O)O)C(=O)O)C(=O)O; X1 = CCCCCCCCCCCCCCCC(=O)N[C@@H](CCC(=O)N[C@@H](CCC(=O)N[C@@H](CCC(=O)NCCCOCCOCCOCCCNC(=O)CCC(=O)NCCCOCCOCCOCCCNC(=O)CCC(=O)NCCCOCCOCCOCCCN*)C(=O)O)C(=O)O)C(=O)O; X4 = CCCCCCCCCCCCCCCCCC(=O)N[C@@H](CCC(=O)N[C@@H](CCC(=O)N[C@@H](CCC(=O)NCCCOCCOCCOCCCNC(=O)CCC(=O)NCCCOCCOCCOCCCN*)C(=O)O)C(=O)O)C(=O)O; Trp(5-Cl) = N[C@@H](Cc1c[nH]c2ccc(Cl)cc12)C(=O)O; Suc = O=C(CCC(=O)[*:2])[*:1]; αMeK = C[C@](N)(CCCCN)C(=O)O; Aib = CC(C)(N)C(=O)O
Molecular target: T1, RXFP1 (Homo sapiens, UniProt Q9HBX9)
T1 construct: OVCAR5 cells expressing endogenous RXFP1; endogenous in cells; host or cells: OVCAR5
T1 sequence (Q9HBX9 1-757): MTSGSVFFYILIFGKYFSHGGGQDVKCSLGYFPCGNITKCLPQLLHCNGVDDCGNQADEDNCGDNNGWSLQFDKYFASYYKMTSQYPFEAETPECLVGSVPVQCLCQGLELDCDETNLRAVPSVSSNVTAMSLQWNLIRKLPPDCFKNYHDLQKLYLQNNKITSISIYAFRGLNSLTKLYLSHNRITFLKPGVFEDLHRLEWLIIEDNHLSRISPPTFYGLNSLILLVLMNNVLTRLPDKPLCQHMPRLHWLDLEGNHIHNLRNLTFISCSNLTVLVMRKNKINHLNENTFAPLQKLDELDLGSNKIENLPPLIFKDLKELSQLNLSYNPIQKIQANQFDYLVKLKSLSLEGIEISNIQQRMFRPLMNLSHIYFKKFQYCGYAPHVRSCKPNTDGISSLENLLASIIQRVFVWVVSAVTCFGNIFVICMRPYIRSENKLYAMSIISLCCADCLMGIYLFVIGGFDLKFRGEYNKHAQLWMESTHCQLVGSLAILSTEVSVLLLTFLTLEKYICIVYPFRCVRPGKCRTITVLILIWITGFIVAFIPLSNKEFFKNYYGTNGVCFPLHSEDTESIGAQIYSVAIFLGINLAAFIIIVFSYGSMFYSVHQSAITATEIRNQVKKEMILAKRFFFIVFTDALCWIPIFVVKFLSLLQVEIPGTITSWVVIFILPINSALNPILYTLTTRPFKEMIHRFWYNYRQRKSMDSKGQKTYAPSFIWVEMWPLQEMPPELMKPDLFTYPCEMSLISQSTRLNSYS
Assay: OVCAR5 cAMP assay (HTRF)
Type: cell-based
Conditions: for Emax: OVCAR 5 cells, maximal cAMP relative to H2-relaxin; for EC50: OVCAR 5 cells expressing endogenous RXFP1, cAMP readout
Summary of the method: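 Endogenous RXFP1 in OVCAR5 cells, pretreated 40 min at 37° C with 1 mM IBMX, then exposed to increasing peptide concentrations in serum-free medium for 30 min at 37° C. cAMP read by HTRF; EC50 by variable-slope sigmoidal fit, Emax as % of H2-relaxin maximal cAMP in same run.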

Row | SMILES | Emax | EC50
1 | CCCCCCCCCCCCCCCCCC(=O)N[C@@H](CCC(=O)N[C@@H](CCC(=O)N[C@@H](CCC(=O)NCCCOCCOCCOCCCNC(=O)CCC(=O)NCCCOCCOCCOCCCNC(=O)CCC(=O)NCCCOCCOCCOCCCNC(=O)CCC(=O)NCCCOCCOCCOCCCNC(=O)CCC(=O)NCCCC[C@H](NC(=O)CNC(=O)[C@H](CCC(=O)O)NC(=O)C(C)(C)NC(=O)C(C)(C)NC(=O)[C@@H](NC(=O)[C@H](CCCCNC(C)=O)NC(=O)[C@H](C)NC(=O)[C@H](CCCNC(=N)N)NC(=O)[C@@H](NC(=O)[C@H](CCCCN)NC(=O)[C@H](CCC(=O)O)NC(=O)[C@H](CCCNC(=N)N)NC(=O)CNC(=O)[C@H](CCC(=O)O)NC(=O)[C@H](CC(C)C)NC(C)=O)C(C)C)[C@@H](C)CC)C(=O)N[C@@H](CO)C(=O)N[C@H](C(=O)N[C@@H](Cc1c[nH]c2ccccc12)C(=O)N[C@@H](CO)C(=O)NC(C)(C)C(=O)N[C@@H](CCCNC(=N)N)C(=O)N[C@@H](CCCCN)C(=O)N[C@@H](CCCCNC(C)=O)C(N)=O)[C@@H](C)O)C(=O)O)C(=O)O)C(=O)O [compound 58] (Ac-LEGREKVRAK(Ac)I[Aib][Aib]EGK([Suc-X16])STWS[Aib]RKK(Ac)-NH2) | 98% | –
2 | CCCCCCCCCCCCCCCC(=O)N[C@@H](CCC(=O)N[C@@H](CCC(=O)N[C@@H](CCC(=O)NCCCOCCOCCOCCCNC(=O)CCC(=O)NCCCOCCOCCOCCCNC(=O)CCC(=O)NCCCOCCOCCOCCCNC(=O)CCC(=O)NCCCC[C@H](NC(=O)CNC(=O)[C@H](CCC(=O)O)NC(=O)[C@@H](NC(=O)C(C)(C)NC(=O)[C@@H](NC(=O)[C@H](CCCCNC(C)=O)NC(=O)[C@H](C)NC(=O)[C@H](CCCNC(=N)N)NC(=O)[C@@H](NC(=O)[C@H](CCCCN)NC(=O)[C@H](CCC(=O)O)NC(=O)[C@H](CCCNC(=N)N)NC(=O)CNC(=O)[C@H](CCC(=O)O)NC(=O)[C@H](CC(C)C)NC(C)=O)C(C)C)[C@@H](C)CC)[C@@H](C)CC)C(=O)N[C@@H](CO)C(=O)N[C@H](C(=O)N[C@@H](Cc1ccccc1)C(=O)N[C@@H](CO)C(=O)N[C@@](C)(CCCCN)C(=O)N[C@@H](CCCNC(=N)N)C(=O)N[C@@H](C)C(=O)N[C@@H](CCCCNC(C)=O)C(N)=O)[C@@H](C)O)C(=O)O)C(=O)O)C(=O)O [compound 84] (Ac-LEGREKVRAK(Ac)I[Aib]IEGK([Suc-X1])STFS[αMeK]RAK(Ac)-NH2) | 95% | 0.1 nM
3 | CCCCCCCCCCCCCCCCCC(=O)N[C@@H](CCC(=O)N[C@@H](CCC(=O)N[C@@H](CCC(=O)NCCCOCCOCCOCCCNC(=O)CCC(=O)NCCCOCCOCCOCCCNC(=O)CCC(=O)NCCCC[C@H](NC(=O)CNC(=O)[C@H](CCC(=O)O)NC(=O)C(C)(C)NC(=O)C(C)(C)NC(=O)[C@@H](NC(=O)[C@H](CCCCNC(C)=O)NC(=O)[C@H](C)NC(=O)[C@H](CCCNC(=N)N)NC(=O)[C@@H](NC(=O)[C@H](CCCCN)NC(=O)[C@H](CCC(=O)O)NC(=O)[C@H](CCCNC(=N)N)NC(=O)CNC(=O)[C@H](CCC(=O)O)NC(=O)[C@H](CC(C)C)NC(C)=O)C(C)C)[C@@H](C)CC)C(=O)N[C@@H](CO)C(=O)N[C@H](C(=O)N[C@@H](Cc1ccccc1)C(=O)N[C@@H](CO)C(=O)NC(C)(C)C(=O)N[C@@H](CCCNC(=N)N)C(=O)N[C@@H](CCCCN)C(=O)N[C@@H](CCCCNC(C)=O)C(N)=O)[C@@H](C)O)C(=O)O)C(=O)O)C(=O)O [compound 60] (Ac-LEGREKVRAK(Ac)I[Aib][Aib]EGK([Suc-X4])STFS[Aib]RKK(Ac)-NH2) | 95% | 0.15 nM

Now from value to compound:

Row | Emax | EC50 | SMILES
4 | 93% | 0.63 nM | CCCCCCCCCCCCCCCC(=O)N[C@@H](CCC(=O)N[C@@H](CCC(=O)N[C@@H](CCC(=O)NCCCOCCOCCOCCCNC(=O)CCC(=O)NCCCOCCOCCOCCCNC(=O)CCC(=O)NCCCOCCOCCOCCCNC(=O)CCC(=O)NCCCC[C@H](NC(=O)CNC(=O)[C@H](CCC(=O)O)NC(=O)C(C)(C)NC(=O)C(C)(C)NC(=O)[C@@H](NC(=O)[C@H](CCCCNC(C)=O)NC(=O)[C@H](C)NC(=O)[C@H](CCCNC(=N)N)NC(=O)[C@@H](NC(=O)[C@H](CCCNC(=N)N)NC(=O)[C@H](CCC(=O)O)NC(=O)[C@H](CCCNC(=N)N)NC(=O)CNC(=O)[C@H](CCC(=O)O)NC(=O)[C@H](CC(C)C)NC(C)=O)C(C)C)[C@@H](C)CC)C(=O)N[C@@H](CO)C(=O)N[C@H](C(=O)N[C@@H](Cc1c[nH]c2ccc(Cl)cc12)C(=O)N[C@@H](CO)C(=O)NC(C)(C)C(=O)N[C@@H](CCCNC(=N)N)C(=O)N[C@@H](CCCNC(=N)N)C(=O)N[C@@H](CCCCNC(C)=O)C(N)=O)[C@@H](C)O)C(=O)O)C(=O)O)C(=O)O [compound 80] (Ac-LEGRERVRAK(Ac)I[Aib][Aib]EGK([Suc-X1])ST[Trp(5-Cl)]S[Aib]RRK(Ac)-NH2)
5 | 95% | 0.2 nM | CCCCCCCCCCCCCCCC(=O)N[C@@H](CCC(=O)N[C@@H](CCC(=O)N[C@@H](CCC(=O)NCCCOCCOCCOCCCNC(=O)CCC(=O)NCCCOCCOCCOCCCNC(=O)CCC(=O)NCCCOCCOCCOCCCNC(=O)CCC(=O)NCCCC[C@H](NC(=O)CNC(=O)[C@H](CCC(=O)O)NC(=O)C(C)(C)NC(=O)C(C)(C)NC(=O)[C@@H](NC(=O)[C@H](CCCCNC(C)=O)NC(=O)[C@H](C)NC(=O)[C@H](CCCNC(=N)N)NC(=O)[C@@H](NC(=O)[C@H](CCCCN)NC(=O)[C@H](CCC(=O)O)NC(=O)[C@H](CCCNC(=N)N)NC(=O)CNC(=O)[C@H](CCC(=O)O)NC(=O)[C@H](CC(C)C)NC(C)=O)C(C)C)[C@@H](C)CC)C(=O)N[C@@H](CO)C(=O)N[C@@H](CCCCN)C(=O)N[C@@H](Cc1c[nH]c2ccccc12)C(=O)N[C@@H](CO)C(=O)NC(C)(C)C(=O)N[C@@H](CCCNC(=N)N)C(=O)N[C@@H](C)C(=O)N[C@@H](CCCCN)C(N)=O)C(=O)O)C(=O)O)C(=O)O [compound 73] (Ac-LEGREKVRAK(Ac)I[Aib][Aib]EGK([Suc-X1])SKWS[Aib]RAK-NH2)
6 | 98% | 0.16 nM | CCCCCCCCCCCCCCCC(=O)N[C@@H](CCC(=O)N[C@@H](CCC(=O)N[C@@H](CCC(=O)NCCCOCCOCCOCCCNC(=O)CCC(=O)NCCCOCCOCCOCCCNC(=O)CCC(=O)NCCCOCCOCCOCCCNC(=O)CCC(=O)NCCCC[C@H](NC(=O)CNC(=O)[C@H](CCC(=O)O)NC(=O)C(C)(C)NC(=O)C(C)(C)NC(=O)[C@@H](NC(=O)[C@H](CCCCNC(C)=O)NC(=O)[C@H](C)NC(=O)[C@H](CCCNC(=N)N)NC(=O)[C@@H](NC(=O)[C@H](CCCCN)NC(=O)[C@H](CCC(=O)O)NC(=O)[C@H](CCCNC(=N)N)NC(=O)CNC(=O)[C@H](CCC(=O)O)NC(=O)[C@H](CCCCNC(C)=O)NC(C)=O)C(C)C)[C@@H](C)CC)C(=O)N[C@@H](CO)C(=O)N[C@H](C(=O)N[C@@H](Cc1ccccc1)C(=O)N[C@@H](CO)C(=O)N[C@@](C)(CCCCN)C(=O)N[C@@H](CCCNC(=N)N)C(=O)N[C@@H](C)C(=O)N[C@@H](CCCCNC(C)=O)C(N)=O)[C@@H](C)O)C(=O)O)C(=O)O)C(=O)O [compound 81] (Ac-K(Ac)EGREKVRAK(Ac)I[Aib][Aib]EGK([Suc-X1])STFS[αMeK]RAK(Ac)-NH2)
